Data on 14 compounds can be found in publication PMC11855827, “High-Throughput Screening of Five Compound Libraries for Anthelmintic Activity and Toxicity Leads to the Discovery of Two Flavonoid Compounds” (International Journal of Molecular Sciences, 2025).

The test has as its system C. elegans. To be noted: Table S2, C. elegans SS assay, 110 μM, averages of 4 data points.

For `C[C@@H]1O[C@@H](O[C@@H]2[C@@H](O)[C@H](O)[C@@H](CO)O[C@H]2c2c(O)cc(O)c3c(=O)cc(-c4ccc(O)cc4)oc23)[C@H](O)[C@H](O)[C@H]1O` [Vitexin‐2"‐O‐rhamnoside], the “Percentage of motility inhibition 0 h” value came out at 2% and the “Percentage of motility inhibition 24 h” value is 52%.

As for `CC1(C)[C@@H](O)CC[C@]2(C)[C@H]3CC=C4[C@@H]5C[C@@]6(C)C[C@H](OC6=O)[C@]5(C)CC[C@@]4(C)[C@]3(C)CC[C@@H]12` [Wilforlide A], the “Percentage of motility inhibition 0 h” value came out at 7% and the “Percentage of motility inhibition 24 h” value came to 3%.

As for `COc1c(O[C@@H]2O[C@H](C(=O)O)[C@@H](O)[C@H](O)[C@H]2O)cc(O)c2c(=O)cc(-c3ccccc3)oc12` [Wogonoside], the “Percentage of motility inhibition 0 h” value is recorded as 6% and the “Percentage of motility inhibition 24 h” value is on record as 2%.

For the compound `Cc1ccc(NC(=O)C(=O)NC2CC(C)(C)NC(C)(C)C2)cc1` [YYA‐021], the “Percentage of motility inhibition 0 h” value is reported as 44% and the “Percentage of motility inhibition 24 h” value is 39%.

Take `O.O=C(O)[C@@H]1[C@H]2C[C@H]3c4[nH]c5ccccc5c4CCN3C[C@@H]2CC[C@@H]1O` [Yohimbic acid (hydrate)]: the “Percentage of motility inhibition 0 h” value was found to be 16% and the “Percentage of motility inhibition 24 h” value amounted to 0%.

For the compound `COC(=O)[C@@H]1[C@H]2C[C@H]3c4[nH]c5ccccc5c4CCN3C[C@@H]2CC[C@@H]1O.Cl` [Yohimbine (Hydrochloride)], the “Percentage of motility inhibition 0 h” value is 24% and the “Percentage of motility inhibition 24 h” value was determined as 0%.

Consider `C[C@H]1CC[C@@H]2N(C1)C[C@H]1[C@@H]3C[C@H]4[C@@H](CC(=O)[C@H]5C[C@H](O)CC[C@@]54C)[C@@H]3CC[C@H]1[C@]2(C)O` [Yubeinine], for which the “Percentage of motility inhibition 0 h” value is on record as 13% and the “Percentage of motility inhibition 24 h” value was found to be 0%.

Turning to `C[C@@H]1CC[C@@]2(OC1)O[C@H]1C[C@H]3[C@@H]4CC=C5C[C@@H](O[C@@H]6O[C@H](CO)[C@@H](O[C@@H]7O[C@H](CO)[C@@H](O)[C@H](O[C@@H]8O[C@H](CO)[C@@H](O)[C@H](O)[C@H]8O)[C@H]7O)[C@H](O)[C@H]6O[C@@H]6O[C@@H](C)[C@H](O)[C@@H](O)[C@H]6O)CC[C@]5(C)[C@H]4CC[C@]3(C)[C@H]1[C@@H]2C` [Zingiberen Newsaponin], the “Percentage of motility inhibition 0 h” value is reported as 0% and the “Percentage of motility inhibition 24 h” value is listed as 60%.

Consider `C[C@@H]1CC[C@]2(C(=O)O)CC[C@]3(C)C(=CC[C@@H]4[C@@]5(C)CC[C@H](O[C@@H]6OC[C@H](O)[C@H](O)[C@H]6O)C(C)(C)[C@@H]5CC[C@]43C)[C@@H]2[C@]1(C)O` [Ziyuglycoside II], for which the “Percentage of motility inhibition 0 h” value was determined as 11% and the “Percentage of motility inhibition 24 h” value was 14%.

With `C[C@@H]1CC[C@]2(C(=O)O[C@@H]3O[C@H](CO)[C@@H](O)[C@H](O)[C@H]3O)CC[C@]3(C)C(=CC[C@@H]4[C@@]5(C)CC[C@H](O[C@@H]6OC[C@H](O)[C@H](O)[C@H]6O)C(C)(C)[C@@H]5CC[C@]43C)[C@@H]2[C@]1(C)O` [Ziyuglycoside I], the “Percentage of motility inhibition 0 h” value was found to be 0% and the “Percentage of motility inhibition 24 h” value came to 6%.

On to `C=C/C(C)=C/C=C/C(C)=C/C=C1/C(C)=CCCC1(C)C` [all-trans-Anhydro Retinol], for which the “Percentage of motility inhibition 0 h” value worked out at 61% and the “Percentage of motility inhibition 24 h” value is on record as 58%.

For `C/C=C/c1cc(OC)c(OC)cc1OC` [alpha-Asarone], the “Percentage of motility inhibition 0 h” value is listed as 49% and the “Percentage of motility inhibition 24 h” value is 29%.

Regarding `CC(C)=CCC[C@](C)(O)[C@@H]1CC=C(C)CC1` [alpha-Bisabolol], the “Percentage of motility inhibition 0 h” value worked out at 1% and the “Percentage of motility inhibition 24 h” value was determined as 6%.

As to `CC1(C)CC[C@]2(C)CC[C@]3(C)C(=CC[C@@H]4[C@@]5(C)CC[C@@H](O)[C@](C)(C(=O)O)[C@@H]5CC[C@]43C)[C@@H]2C1` [alpha-Boswellic acid], the “Percentage of motility inhibition 0 h” value is 34% and the “Percentage of motility inhibition 24 h” value came out at 28%.
